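Values below derive from 48-hour exposures of cells grown in 96-well plates, with endpoints linearly interpolated between the two concentrations bracketing the appropriate inhibition level. GI50 marks 50% less growth. TGI denotes the concentration required for complete inhibition of growth.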
Columns and labels:
Assay in all cases: NCI tumour cell line growth inhibition, 48 h
OVCAR-8 ovarian = test system: OVCAR-8 ovarian
SW-620 colon = test system: SW-620 colon
SNB-19 CNS = test system: SNB-19 CNS
SF-295 CNS = test system: SF-295 CNS
SN12C renal = test system: SN12C renal
OVCAR-4 ovarian = test system: OVCAR-4 ovarian
SK-MEL-28 melanoma = test system: SK-MEL-28 melanoma
M14 melanoma = test system: M14 melanoma
PC-3 prostate = test system: PC-3 prostate
MDA-MB-435 = test system: MDA-MB-435

Row | SMILES | TGI (OVCAR-8 ovarian) | TGI (SW-620 colon) | TGI (SNB-19 CNS) | TGI (SF-295 CNS) | TGI (SN12C renal) | TGI (OVCAR-4 ovarian) | TGI (SK-MEL-28 melanoma) | TGI (M14 melanoma) | GI50 (OVCAR-8 ovarian) | GI50 (SW-620 colon) | GI50 (SNB-19 CNS) | GI50 (SF-295 CNS) | GI50 (SN12C renal) | GI50 (PC-3 prostate) | TGI (PC-3 prostate) | GI50 (MDA-MB-435) | TGI (MDA-MB-435) | GI50 (OVCAR-4 ovarian) | GI50 (SK-MEL-28 melanoma) | GI50 (M14 melanoma)
1 | O=C(CCN(C(=O)O)S(=O)(=O)c1ccc(NC(=O)c2ccccc2)cc1)Nc1ccccc1 | > 100 µM | > 68 µM | > 100 µM | > 100 µM | > 100 µM | > 100 µM | > 100 µM | > 100 µM | – | – | – | – | – | – | – | – | – | – | – | –
2 | COc1cc(OCc2cccc(-c3ccc(C(O)c4nccs4)cc3)c2C)cc(OC)c1C=O (stereo not given) | 23.6 µM | 12.7 µM | 13.4 µM | 6.58 µM | 7.07 µM | 6.35 µM | 6.57 µM | 7.61 µM | 2.9 µM | 3.2 µM | 3.16 µM | 2.12 µM | 1.98 µM | 2.74 µM | 11.2 µM | 2.22 µM | 6.26 µM | 0.597 µM | 2.04 µM | 2.55 µM
3 | N=C(N)C1CN(CCc2c[nH]c3ccccc23)C(=O)NC1=O (stereo not given) | > 100 µM | > 100 µM | > 100 µM | > 100 µM | > 100 µM | > 100 µM | > 100 µM | > 100 µM | – | – | – | – | – | – | > 100 µM | – | > 100 µM | – | – | –
4 | COc1cc(-c2oc(=O)ccc2C#Cc2ccccn2)cc(OC)c1OC | > 100 µM | > 100 µM | > 76.1 µM | 2.01 µM | > 100 µM | > 100 µM | > 100 µM | > 32.4 µM | 3.89 µM | 2.28 µM | 3.8 µM | 0.224 µM | 5.5 µM | 2.21 µM | > 100 µM | 0.171 µM | 0.932 µM | 9.65 µM | 3.34 µM | 2.74 µM
5 | O=[N+]([O-])c1cccc(C2=NN(c3ccccc3)C[N+](c3ccc(Br)cc3)=N2)c1 | > 100 µM | > 100 µM | > 100 µM | > 100 µM | > 100 µM | > 100 µM | > 100 µM | > 100 µM | – | – | – | – | – | – | – | – | – | – | – | –
6 | CCCCCCCCCCCCCC(=O)OCC(C[As](=O)(O)O)OC(=O)CCCCCCCCCCCCC (stereo not given) | > 100 µM | 47 µM | > 100 µM | – | > 100 µM | > 100 µM | > 100 µM | > 100 µM | – | – | – | – | – | – | – | – | – | – | – | –
7 | CC1=C(C(=O)Nc2ccc(F)c(Cl)c2)C(c2ccccc2O)NC(=S)N1 (stereo not given) | > 50 µM | > 50 µM | > 50 µM | > 50 µM | > 50 µM | – | – | > 50 µM | 12.9 µM | > 50 µM | > 50 µM | 35.4 µM | > 50 µM | 40.6 µM | > 50 µM | 32.2 µM | > 50 µM | – | – | > 50 µM
8 | COC(=O)C1c2cc3c(cc2C(OC2OC(C)C(OC)C(C)(OC)C2OC)CC1(C)O)C(=O)c1c(O)cc2c(c1C3=O)OC1OC2(C)C(O)C([N+](C)(C)[O-])C1O (stereo not given) | 4.22 µM | > 23.8 µM | > 36.1 µM | > 42 µM | 1.8 µM | > 100 µM | – | 3.64 µM | – | – | – | – | – | – | > 40.7 µM | – | – | – | – | –
9 | CC(C)CCC1CC2C(=O)N(c3ccccc3)C(=O)C2c2[nH]c3ccccc3c21 (stereo not given) | 11.7 µM | 13.1 µM | 20.6 µM | 2.86 µM | 15.4 µM | 20.7 µM | 20 µM | 4.04 µM | – | – | – | – | – | – | – | – | – | – | – | –

Reference: PubChem BioAssay (NCI)
